Test results published in patent US20100069494A1, “LOWERING OF PROTEINS ASSOCIATED WITH ALZHEIMER'S DISEASE BY INTERRUPTING GENE TRANSCRIPTION WITH A SMALL MOLECULE” (BOARD OF GOVERNORS FOR HIGHER EDUCATION, STATE OF RHODE …, priority 2007, published 2010).

Legend:
APP = experiment: Oral tolfenamic acid in mice, Western blot analysis of APP in brain; assay type: in vivo, mice (C57BL/6); conditions: oral gavage 10 or 50 mg/Kg in corn oil on alternate days, ratio to housekeeping gene, both doses combined (FIG. 6B)
Protocol: The Oral Administration of Tolfenamic acid to mice lowers SP1, APP, and Aβ levels in the brain (See FIG. 6). Mice were dosed on alternate days by oral gavage with 10 or 50 mg/Kg of tolfenamic acid in corn oil or vehicle alone. Tolfenamic acid (TFA) lowered APP levels by about 50% and Aβ by about 20%. […] FIG. 6A is a representative Western blot of SP1. FIG. 6B is a Western blot analysis of APP expressed as a ratio of a housekeeping gene, FIG. 6C is Aβ analysis by ELISA. Each bar represents the mean of data obtained from 6-9 animals. Data from both doses was combined after statistical analysis. Values marked with an ‘*’ are statistically significant, p<0.0.5. Animal Exposure: Adult mice (C57BL/6) were obtained from Jackson labs (Maine). They were divided into 2 groups viz., Con (C), drug treated (D). The drug, toelfenamic acid was dissolved in corn oil and administered at various concentrations from 10 mg/Kg to 100 mg/Kg in corn oil by oral gavage. Control mice were dosed with corn oil only. Treatment was given on alternate days for one month. At the end of the exposure period the animals were decapitated following exposure to CO2 and hypothermia and various brain regions were isolated and stored at −70° C. This protocol has been approved by the IACUC of the University of Rhode Island. […]

SP1 = target: T1, SP1 (Mus musculus, UniProt O89090); experiment: Oral tolfenamic acid in mice, Western blot of SP1 in brain; assay type: in vivo, mice (C57BL/6); conditions: oral gavage 10 or 50 mg/Kg in corn oil on alternate days, Western blot (FIG. 6A)
T1 construct: various brain regions were isolated and stored at −70° C; from tissue; host or cells: brain of adult C57BL/6 mice
T1 sequence (O89090 whole entry): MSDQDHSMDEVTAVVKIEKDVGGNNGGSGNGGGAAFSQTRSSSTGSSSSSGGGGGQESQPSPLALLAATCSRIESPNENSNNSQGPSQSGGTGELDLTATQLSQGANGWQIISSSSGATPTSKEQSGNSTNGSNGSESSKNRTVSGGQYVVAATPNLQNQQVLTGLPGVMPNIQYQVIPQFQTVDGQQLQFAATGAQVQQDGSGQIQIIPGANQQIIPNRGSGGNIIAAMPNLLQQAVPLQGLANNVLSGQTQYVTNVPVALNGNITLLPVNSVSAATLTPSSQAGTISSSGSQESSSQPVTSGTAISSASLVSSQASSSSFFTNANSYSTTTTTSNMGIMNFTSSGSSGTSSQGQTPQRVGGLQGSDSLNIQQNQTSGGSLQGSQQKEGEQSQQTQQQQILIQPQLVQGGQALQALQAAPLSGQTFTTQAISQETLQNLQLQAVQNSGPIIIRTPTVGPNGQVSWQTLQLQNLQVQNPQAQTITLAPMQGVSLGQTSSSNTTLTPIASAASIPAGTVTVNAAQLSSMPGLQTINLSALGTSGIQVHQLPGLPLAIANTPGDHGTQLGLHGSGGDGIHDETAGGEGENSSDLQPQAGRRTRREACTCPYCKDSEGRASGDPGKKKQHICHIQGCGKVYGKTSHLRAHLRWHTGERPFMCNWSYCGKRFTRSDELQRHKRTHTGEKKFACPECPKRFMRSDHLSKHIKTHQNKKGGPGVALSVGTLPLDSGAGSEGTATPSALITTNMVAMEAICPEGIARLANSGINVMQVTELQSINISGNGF
Protocol: The Oral Administration of Tolfenamic acid to mice lowers SP1, APP, and Aβ levels in the brain (See FIG. 6). Mice were dosed on alternate days by oral gavage with 10 or 50 mg/Kg of tolfenamic acid in corn oil or vehicle alone. Tolfenamic acid (TFA) lowered APP levels by about 50% and Aβ by about 20%. […] FIG. 6A is a representative Western blot of SP1. FIG. 6B is a Western blot analysis of APP expressed as a ratio of a housekeeping gene, FIG. 6C is Aβ analysis by ELISA. Each bar represents the mean of data obtained from 6-9 animals. Data from both doses was combined after statistical analysis. Values marked with an ‘*’ are statistically significant, p<0.0.5.
Animal Exposure: Adult mice (C57BL/6) were obtained from Jackson labs (Maine). They were divided into 2 groups viz., Con (C), drug treated (D). The drug, toelfenamic acid was dissolved in corn oil and administered at various concentrations from 10 mg/Kg to 100 mg/Kg in corn oil by oral gavage. Control mice were dosed with corn oil only. Treatment was given on alternate days for one month. At the end of the exposure period the animals were decapitated following exposure to CO2 and hypothermia and various brain regions were isolated and stored at −70° C. This protocol has been approved by the IACUC of the University of Rhode Island. […]

Aβ = experiment: Oral tolfenamic acid in mice, Aβ analysis by ELISA in brain; assay type: in vivo, mice (C57BL/6); conditions: oral gavage 10 or 50 mg/Kg in corn oil on alternate days, both doses combined (FIG. 6C)
Protocol: The Oral Administration of Tolfenamic acid to mice lowers SP1, APP, and Aβ levels in the brain (See FIG. 6). Mice were dosed on alternate days by oral gavage with 10 or 50 mg/Kg of tolfenamic acid in corn oil or vehicle alone. Tolfenamic acid (TFA) lowered APP levels by about 50% and Aβ by about 20%. […] FIG. 6A is a representative Western blot of SP1. FIG. 6B is a Western blot analysis of APP expressed as a ratio of a housekeeping gene, FIG. 6C is Aβ analysis by ELISA. Each bar represents the mean of data obtained from 6-9 animals. Data from both doses was combined after statistical analysis. Values marked with an ‘*’ are statistically significant, p<0.0.5. Animal Exposure: Adult mice (C57BL/6) were obtained from Jackson labs (Maine). They were divided into 2 groups viz., Con (C), drug treated (D). The drug, toelfenamic acid was dissolved in corn oil and administered at various concentrations from 10 mg/Kg to 100 mg/Kg in corn oil by oral gavage. Control mice were dosed with corn oil only. Treatment was given on alternate days for one month. […] ELISA Assays: Aβ-40 and Aβ-42 levels were measured using a combination of monoclonal antibody (mAb) 6E10 (specific to an epitope present on 1-16 amino acid residues of Aβ) and R162, and R164 respectively in a double-antibody sandwich ELISA (Mehta et al., 1998; Morishima-Kawashima et al., 2000; Basha et al., 2005).

Sp1, Sp3 and Sp4 = conditions: pancreatic cancer cells and tumors; background statement; cited from earlier work

SP1 levels in the brain (SP1): lowers
Compound: Cc1c(Cl)cccc1Nc1ccccc1C(=O)O [Tolfenamic acid]
lowering of APP levels (APP): about 50% | lowering of Aβ levels (Aβ): about 20% | degradation of Sp1, Sp3 and Sp4 (Sp1, Sp3 and Sp4): can induce proteasome-dependent degradation of Sp1, Sp3 and Sp4
